Test results: the NIST ThermoML archive (doi:10.1016/j.fluid.2012.08.023)
± gives the expanded uncertainty stated by the source.

Settings: Liquid, Closed cell (Static) method

| vapor or sublimation pressure (268.13 K) | vapor or sublimation pressure (278.36 K) | vapor or sublimation pressure (288.16 K) | vapor or sublimation pressure (298.13 K) | SMILES |
| --- | --- | --- | --- | --- |
| 91 ± 12 kPa | 134.6 ± 12 kPa | 192.9 ± 12 kPa | 268.8 ± 12 kPa | FC(F)(F)C(F)(F)C(F)(F)C(F)(F)F [decafluorobutane] |
| 3648.5 ± 22 kPa | 4611.2 ± 26 kPa |  |  | C=C [ethene] |
